Experimental data reported in publication PMC7156724, “Potent BRD4 inhibitor suppresses cancer cell-macrophage interaction” (Nature Communications, 2020).
Where “and” joins values, the source holds several entries; their conditions need not be identical. Equal values may be shown once.

Tests used:
[1] = test system: BRD4 binding to the HIF1A promoter; experiment: BRD4 ChIP-qPCR of the HIF1A promoter in A2780 cells; assay type: cell-based, human
Method: Fig. 7 NHWD-870 inhibited CSF1 expression through suppressing BRD4 and HIF1α in tumor cells. a, b Representative western blot analysis of control (Ctrl) and BRD4 knockout (KO) A375 and A2780 cells exposed to 20% or 1% O2 for 24 hours. Selected from three independent experiments. c, d Representative western blot analysis of A375 and A2780 cells treated with DMSO or 25 nM NHWD-870 and exposed to 20% or 1% O2 for 24 h. Selected from three independent experiments. e Relative HIF1 luciferase reporter activity in control (Ctrl), BRD4 knockout (KO), or NHWD-870 treated A375 and A2780 cells exposed to 20% or 1% O2 for 24 h. Data are presented as mean ± SEM from three independent experiments. f RT-qPCR analyses of CSF1 in control (Ctrl), BRD4 knockout (KO), or NHWD-870 treated A375 and A2780 cells exposed to 20% or 1% O2 for 24 hours. Data are presented as mean ± SEM from three independent experiments. g RT-qPCR analyses of HIF1A in A375 or A2780 cells treated with 15 nM NHWD-870 or DMSO control for 24 h. Data are presented as mean ± SEM from three independent experiments. h Genome browser view of BRD4 ChIP-seq peaks on the HIF1A promoter. Shown are BRD4 ChIP and input control of A375 cells (top panel) and BRD4 ChIP of MDA-MB231 cells treated with DMSO or JQ-1 (bottom panel). i BRD4 ChIP-qPCR analyses of the HIF1A promoter in A2780 cells treated with DMSO or NHWD-870 for 72 h. Data are presented as mean ± SEM from three independent experiments. j RT-qPCR analyses of CSF1 in A375 and A2780 cells were transiently transduced with HIF1α, then exposed to 1% O2 for 24 h. Ctrl, Control. Data are presented as mean ± SEM from three independent experiments. k A model showing the effects of NHWD-870 on cancer cell-TAM interaction. NHWD-870 inhibits the proliferation and survival of TAMs partly by inhibiting BRD4 activity, HIF1α expression, and CSF1 secretion by tumor cells, and downregulating CSF1R mediated ERK and PI3K/AKT signaling in TAMs. p values were calculated using two-tailed, unpaired t tests in this figure. *p < 0.05; **p < 0.01; ***p < 0.001. […]

H526 cells = experiment: Clonogenic (colony formation) assay, H526; assay type: cell-based, human; conditions: H526, 250 nM, 5 days
Method: Fig. 2 NHWD-870 inhibited BRD4 phosphorylation and c-MYC expression, and suppressed cell growth. a Representative western blot analysis of p-BRD4 (s484/488), BRD4, c-MYC, and GAPDH after treatment of MDA-MB231, SUM159, A2780 ES-2, and H526 cells with JQ-1 or NHWD-870 at the indicated concentrations for 24 h. GAPDH served as the loading control. Selected from three independent experiments. b MTT assays of H526, A2780, ES-2, and MDA-MB231 cells treated with JQ-1 or NHWD-870 at the indicated concentrations for 5 days. Data are presented as mean ± SEM from three independent experiments. c, d Clonogenic assays of H526, A2780, ES-2 and MDA-MB231 cells treated with 250 nM JQ-1 or NHWD-870 for 5 days. Shown are representative images (c) and quantification of colonies (d). […] Shown are representative images (e) and quantification of relative colony sizes (f). Scale bar, 50 μm. Data are presented as mean ± SEM from five independent experiments. p values were calculated using two-tailed, unpaired t tests in this figure. **p < 0.01; ***p < 0.001. Source data are provided as a Source Data file. […]
5. Colony formation assay. Cells were seeded in 6-well plates at 3,000 cells/well […]
every week. […] Colony numbers were calculated with imageJ version

## Cc1nnn(C)c1-c1cnc2c3c4cnn(C)c4ccc3n([C@H](c3ccccc3)C3CCOCC3)c2c1 [NHWD-870]
[1]; A2780, 15nM 3 days
  ChIP-qPCR enrichment relative to input, IgG (Fig.7i): 0.411 and 0.4665 and 0.4566
  ChIP-qPCR enrichment relative to input, anti-BRD4 (Fig.7i): 0.646 and 0.721 and 0.6555
[1]; A2780 cells, 15nM, 72 h
  BRD4 binding to the HIF1A promoter (ChIP-qPCR): decreased BRD4 binding to the HIF1A promoter
H526 cells
  Clone Number (clonogenic assay): 75 and 84 and 92 and 65 and 76
